Assays:
[1] = test system: HUVEC cells; experiment: Capillary tube formation on a Matrigel; assay type: cell-based, human; details: for formation of capillary tube like structures: 20 μM and 40 μM, comparative assay; for antiangiogenic activity in the tube-like formation assay in HUVEC cells: overall conclusion
Protocol: The formation of capillary tube like structures by HUVEC cells was analyzed on 24-well cell culture plates coated with an extracellular membrane matrix (Matrigel; BD Biosciences).
Matrigel was thawed at 4° C. Using precooled plates and tips, 100 μl/well of Matrigel was distributed and allowed to gelify at 37° C. for at least 30 min. Cells were seeded on the polymerized Matrigel (5 to 8×10^4 cells/well). The plate was incubated at 37° C., and tube formation was observed under a optic inverted microscope. Digital pictures were taken at different times with a camera. Tubular structures were quantified by manual counting of low power fields (25×) and inhibition percentage was expressed using untreated wells as 100%.
The formation of capillary tube-like structures by HUVEC cells was analyzed on 24-well cell culture plates coated with an extracellular membrane matrix (Matrigel; BD Biosciences). Matrigel was thawed at 4° C. Using precooled plates and tips, 100 μl/well of Matrigel was distributed and allowed to gelify at 37° C. for at least 30 min. Cells were seeded on the polymerized Matrigel (5 to 8×10^4 cells/well) in absence and presence of concentrations of 20 μM and 40 μM of each compound. The plate was incubated at 37° C., and tube formation was observed under an optic inverted microscope. Compound 1 was used as positive control.

[2] = test system: TNF-α; experiment: TNF-α secretion in LPS-activated macrophages; assay type: cell-based; details: Macrophage, read-out: inhibitory concentration 50% (IC50), TNF-α secretion
[3] = test system: NF-κB p65 subunit; experiment: NF-κB p65 nuclear translocation in LPS-stimulated J774A.1 cells (IFI); assay type: cell-based, murine; details: J774A.1 induced with LPS 8 h, 40 μM (LPS only 79.4±1.2)
Protocol: J774A.1 cells were grown on coverslips in 24-well plates and stimulated with 100 ng/ml LPS (Sigma) in RPMI without SFB, for 8 h at 37° C.
After incubation, cells were fixed in methanol at −20° C. for 10 min, and processed for indirect immunofluorescence (IFI) with antibodies directed against the glycoprotein D (gD) of HSV-1 and/or the p65 subunit of NF-κB. After three washes with PBS, the coverslips were inverted on a drop of a 1/100 dilution of the first antibody, mouse monoclonal anti-gD and/or rabbit polyclonal anti p65 (Santa Cruz Biotechnology) and incubated for 30 min at 37° C., and then subjected to three additional washes with PBS. […]
The images obtained with a 40× magnification were imported into NIH Image J 1.34s program (designed by Wayne Rasband, NIMH, Bethesda). […] We analyzed the total and nuclear fluorescence of the individual cells and a mean fluorescence density was obtained for each. To compare the distribution of fluorescence within the cell, the results were analyzed in a spreadsheet (Excel®). The total fluorescence intensity or nuclear density was calculated as the total or nuclear average per total or nuclear area, respectively. Then, we calculated the percentage of nuclear intensity or the percentage of nuclear intensity with respect to the total intensity for each cell. […]

[4] = test system: IL-6; experiment: IL-6 secretion in LPS-stimulated J774A.1 macrophages (ELISA); assay type: cell-based, murine; details: J774A.1 stimulated with 100 ng/ml LPS 8 h, 40 μM
Protocol: J774A.1 cells grown in 24-well plates were incubated at 37° C. with 100 ng/ml of LPS, in duplicate. After 8 h, supernatants were harvested and murine IL-6 was quantified by commercial ELISA sets (BD OptEIA™, Becton Dickinson, USA) according to manufacturer instructions.

[5] = test system: HSV-1; details: murine model of HSV-1 corneal infection; previously reported; cited from earlier work
[6] = test system: IL-6; details: human epithelial cells derived from ocular tissues; earlier work; cited from earlier work
[7] = test system: TNF-α; details: LPS-stimulated macrophages in vitro; earlier work; cited from earlier work
[8] = test system: TNF-α; details: human epithelial cells derived from ocular tissues; earlier work; cited from earlier work

## CC[C@@H](C(C)C)[C@H](O)[C@@H](O)[C@@H](C)[C@H]1CCC2C3C[C@H](F)C4=CC(=O)C=C[C@]4(C)C3CC[C@@]21C (stereo partly shown) [Compound IV]
[1]
  formation of capillary tube like structures: develop the formation of capillary tube-like structures in same manner than control cells without treatment
  antiangiogenic activity in the tube-like formation assay in HUVEC cells: not present

## C[C@@H]1C[C@H]2[C@@H]3CCC4=CC(=O)C=C[C@]4(C)[C@@]3(F)[C@@H](O)C[C@]2(C)[C@@]1(O)C(=O)CO [DEX, Dexamethasone, reference compound]
[2]
  IC50: 48 µM
[3]
  percentage of cells positive for NF-κB translocation to the nucleus: 100%
[4]
  IL-6 level: 637.1 ± 3.8 pg/mL

## CC[C@@H](C(C)C)[C@H](O)[C@@H](O)[C@@H](C)[C@H]1CC[C@H]2[C@@H]3CC(=O)[C@@]4(O)C[C@@H](Br)CC[C@]4(C)[C@H]3CC[C@]12C [Compound 6b, (22S,23S)-3β-bromo-5α,22,23-trihydroxystigmastan-6-one]
[5]
  anti-HSV-1 activity in vivo: does not exert an anti-HSV-1 activity in vivo
  incidence of HSK: significantly decreases
[6]
  secretion of IL-6: modulates
[7]
  production of TNF-α: hinders
[8]
  secretion of TNF-α: modulates

## CC[C@@H](C(C)C)[C@H](O)[C@@H](O)[C@@H](C)[C@H]1CC[C@H]2[C@@H]3CCC4=CC(=O)C=C[C@]4(C)[C@H]3CC[C@]12C [Compound 2, (22S,23S)-22,23-dihydroxystigmasta-1,4-dien-3-one]
[1]
  formation of capillary tube like structures: showed inhibitory activity

## CC[C@@H](C(C)C)[C@H](O)[C@@H](O)[C@@H](C)[C@H]1CCC2C3C[C@H](F)C4=CC(=O)CC[C@]4(C)C3CC[C@@]21C (stereo partly shown) [Compound III]
[1]
  formation of capillary tube like structures: develop the formation of capillary tube-like structures in same manner than control cells without treatment
  antiangiogenic activity in the tube-like formation assay in HUVEC cells: not present

Source: patent US9187518B2, “Antiangiogenic brassinosteroid compounds” (CONSEJO NACIONAL DE INVESTIGACIONES CIENTIFICAS Y TECNICAS …, priority 2011, dated 2015)
